{
  "source": "ChEMBL document CHEMBL4007424",
  "about": "“Design and Synthesis of Enantiomerically Pure Decahydroquinoxalines as Potent and Selective κ-Opioid Receptor Agonists with Anti-Inflammatory Activity in Vivo” (J Med Chem, 2017)",
  "key": {"[1]": {"target": "Kappa-type opioid receptor (Cavia porcellus, UniProt P41144)", "sequence (P41144 whole entry)": "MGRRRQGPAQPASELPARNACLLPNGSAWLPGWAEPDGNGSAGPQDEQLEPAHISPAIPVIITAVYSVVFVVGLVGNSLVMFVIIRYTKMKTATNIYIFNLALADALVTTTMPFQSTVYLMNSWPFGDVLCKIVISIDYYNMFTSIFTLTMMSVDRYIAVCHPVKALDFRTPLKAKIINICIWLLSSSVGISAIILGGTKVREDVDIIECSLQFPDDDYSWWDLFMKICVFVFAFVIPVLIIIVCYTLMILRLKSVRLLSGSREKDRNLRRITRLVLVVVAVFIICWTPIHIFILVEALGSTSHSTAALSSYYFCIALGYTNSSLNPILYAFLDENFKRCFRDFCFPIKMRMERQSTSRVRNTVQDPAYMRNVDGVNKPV", "test": "Displacement of [3H]U-69,593 from kappa-type opioid receptor in guinea pig brain membranes after 120 mins by solid scintillation counting", "assay_type": "cell membranes, Membrane"}, "Mu-type opioid receptor": {"target": "Mu-type opioid receptor (Cavia porcellus, UniProt P97266)", "sequence (P97266 whole entry)": "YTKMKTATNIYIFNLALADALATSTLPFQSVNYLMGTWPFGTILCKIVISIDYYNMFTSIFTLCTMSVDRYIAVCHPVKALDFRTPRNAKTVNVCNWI", "test": "Displacement of [3H]DAMGO from mu-type opioid receptor in guinea pig brain membranes after 120 mins by solid scintillation counting", "assay_type": "cell membranes, Membrane"}, "[2]": {"test": "Displacement of [3H]DPDPE from delta-type opioid receptor in guinea pig brain membranes after 120 mins by solid scintillation counting", "assay_type": "cell membranes, Cavia porcellus, Membrane"}, "[3]": {"target": "Kappa-type opioid receptor (Homo sapiens, UniProt P41145)", "sequence (P41145 whole entry)": "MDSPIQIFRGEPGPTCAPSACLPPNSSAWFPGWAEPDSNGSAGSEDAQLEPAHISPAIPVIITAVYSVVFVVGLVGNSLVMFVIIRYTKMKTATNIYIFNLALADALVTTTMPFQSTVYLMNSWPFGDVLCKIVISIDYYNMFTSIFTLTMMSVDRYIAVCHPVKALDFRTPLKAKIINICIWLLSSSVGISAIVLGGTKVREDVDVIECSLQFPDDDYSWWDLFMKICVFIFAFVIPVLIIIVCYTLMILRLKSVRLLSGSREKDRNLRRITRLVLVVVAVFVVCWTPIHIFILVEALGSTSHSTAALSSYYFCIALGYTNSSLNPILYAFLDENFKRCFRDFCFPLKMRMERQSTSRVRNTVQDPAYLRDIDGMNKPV", "test": "Agonist activity at recombinant human kappa-type opioid receptor expressed in HEK293 cells after 30 mins by [35S]GTPgammaS binding assay", "assay_type": "functional, cell-based"}, "[4]": {"test": "Lipophilicity, logD of the compound at pH 7.4 by LC/MS analysis", "assay_type": "physicochemical", "conditions": "buffer"}, "Mus musculus [5]": {"system": "Mus musculus", "test": "Antiinflammatory activity in arachidonic acid-induced ear dermatitis ICR mouse model assessed as reduction in ear swelling at 0.1 mg administered twice tropically 30 mins prior and 15 mins after arachidonic acid addition measured 60 mins post arachidonic acid challenge relative to control", "assay_type": "functional"}, "Mus musculus [6]": {"system": "Mus musculus", "test": "Antiinflammatory activity in arachidonic acid-induced ear dermatitis ICR mouse model assessed as reduction in ear swelling at 0.3 mg administered twice tropically 30 mins prior and 15 mins after arachidonic acid addition measured 60 mins post arachidonic acid challenge relative to control", "assay_type": "functional"}, "Mus musculus [7]": {"system": "Mus musculus", "test": "Antiinflammatory activity in arachidonic acid-induced ear dermatitis ICR mouse model assessed as reduction in ear swelling at 1 mg administered twice tropically 30 mins prior and 15 mins after arachidonic acid addition measured 60 mins post arachidonic acid challenge relative to control", "assay_type": "functional"}, "Mus musculus [8]": {"system": "Mus musculus", "test": "Antiinflammatory activity in arachidonic acid-induced ear dermatitis ICR mouse model assessed as reduction in ear swelling at 3 mg administered twice tropically 30 mins prior and 15 mins after arachidonic acid addition measured 60 mins post arachidonic acid challenge relative to control", "assay_type": "functional"}, "Mus musculus [9]": {"system": "Mus musculus", "test": "(§1) Antiinflammatory activity in tropically administered oxazolone-induced delayed type hypersensitivity BALB/c mouse model assessed as reduction in CD4+ cells per 0.1 mm2 at 2.5 mg administered 3 hrs prior to oxazolone challenge on day 7 to 12 post sensitization followed by re-administration of compound on day 13 to 18 without oxazolone challenge measured on day 19 by DAPI-staining based fluorescence microscopic analysis relative to control", "assay_type": "functional"}, "Mus musculus [10]": {"system": "Mus musculus", "test": "as §1, with “CD8+” for “CD4+”", "assay_type": "functional"}, "[11]": {"test": "Ratio of drug level in brain to plasma in Wistar Han rat at 0.3 mg/kg, iv after 0.25 hrs", "assay_type": "ADME, organism-based", "conditions": "read-out: BPR"}, "[12]": {"test": "Plasma concentration in Wistar Han rat at 0.3 mg/kg, iv measured 1 hr post compound administration", "assay_type": "ADME, organism-based"}, "[13]": {"test": "Plasma concentration in Wistar Han rat at 0.3 mg/kg, iv measured 0.25 hrs post compound administration", "assay_type": "ADME, organism-based"}, "[14]": {"test": "Drug level in Wistar Han rat brain at 0.3 mg/kg, iv measured 1 hr post compound administration", "assay_type": "ADME, organism-based", "conditions": "read-out: Drug uptake"}, "[15]": {"test": "Ratio of drug level in brain to plasma in Wistar Han rat at 0.3 mg/kg, iv after 1 hr", "assay_type": "ADME, organism-based", "conditions": "read-out: BPR"}, "Rattus norvegicus [16]": {"system": "Rattus norvegicus", "test": "Toxicity in Wistar Han rat assessed as induction of lethargy at 0.3 mg/kg, iv measured up to 2 hrs", "assay_type": "organism-based", "conditions": "in vivo"}, "Rattus norvegicus [17]": {"system": "Rattus norvegicus", "test": "Toxicity in Wistar Han rat assessed as induction of hunched or abnormal posture at 0.3 mg/kg, iv measured up to 2 hrs", "assay_type": "organism-based", "conditions": "in vivo"}, "Mus musculus [18]": {"system": "Mus musculus", "test": "(§2) Antiinflammatory activity in oxazolone-induced delayed type hypersensitivity BALB/c mouse model assessed as ear swelling at 0.6 mg applied topically on ear administered 3 hrs prior to oxazolone challenge on day 7 to 12 post sensitization followed by re-administration of compound on day 13 to 18 without oxazolone challenge measured on day 13 (reference value: 666 +/- 28 micrometer)", "assay_type": "functional"}, "Mus musculus [19]": {"system": "Mus musculus", "test": "(§3) Antiinflammatory activity in oxazolone-induced delayed type hypersensitivity BALB/c mouse model assessed as ear weight at 0.6 mg applied topically on ear administered 3 hrs prior to oxazolone challenge on day 7 to 12 post sensitization followed by re-administration of compound on day 13 to 18 without oxazolone challenge measured on day 19 (reference value: 30.2 +/- 0.7 mg)", "assay_type": "functional"}, "Mus musculus [20]": {"system": "Mus musculus", "test": "as §3, with “hyperplastic epidrmis” for “ear weight”, “by H and E staining based assay” for “(reference value: 30.2 +/- 0.7 mg)”", "assay_type": "functional"}, "Mus musculus [21]": {"system": "Mus musculus", "test": "as §2, with “on day 19 (reference value:” for “on day 13 (reference value:”, “(reference value: 242 +/- 11” for “(reference value: 666 +/- 28”, “242 +/- 11 micrometer)” for “666 +/- 28 micrometer)”", "assay_type": "functional"}, "Mus musculus [22]": {"system": "Mus musculus", "test": "as §3, with “thickness level” for “weight”, “by H and E staining based assay” for “(reference value: 30.2 +/- 0.7 mg)”", "assay_type": "functional"}, "Mus musculus [23]": {"system": "Mus musculus", "test": "as §3, with “lymphocyte dermal infiltration” for “ear weight”, “by H and E staining based assay” for “(reference value: 30.2 +/- 0.7 mg)”", "assay_type": "functional"}, "Mus musculus [24]": {"system": "Mus musculus", "test": "as §3, with “neutrophil dermal infiltration” for “ear weight”, “by H and E staining based assay” for “(reference value: 30.2 +/- 0.7 mg)”", "assay_type": "functional"}, "Mus musculus [25]": {"system": "Mus musculus", "test": "as §3, with “mast cell dermal infiltration” for “ear weight”, “by H and E staining based assay” for “(reference value: 30.2 +/- 0.7 mg)”", "assay_type": "functional"}, "Mus musculus [26]": {"system": "Mus musculus", "test": "Toxicity in arachidonic acid-induced ear dermatitis ICR mouse model assessed as induction of modest to severe behaviour depression at 0.1 mg to 3 mg administered twice tropically 30 mins prior and 15 mins after arachidonic acid addition measured 60 mins post arachidonic acid challenge", "conditions": "in vivo, topical_or_ocular, 1 h"}},
  "note": "Active and inactive are the calls of the source. No cut-off for these calls is given here.",
  "data": [
    {"smiles": "CS(=O)(=O)N1CCN(C(=O)Cc2ccc(Cl)c(Cl)c2)[C@@H]2[C@@H](N3CC[C@H](O)C3)CCC[C@@H]21", "values": [
      {"measurement": "Ki", "setting": "[1]", "result": 0.63, "unit": "nM"},
      {"measurement": "Ki", "setting": "Mu-type opioid receptor", "result": 336, "unit": "nM"},
      {"measurement": "Ki", "setting": "[2]", "result": 367, "unit": "nM"},
      {"measurement": "EC50", "setting": "[3]", "result": 1.8, "unit": "nM"},
      {"measurement": "logD", "setting": "[4]", "result": 2.41},
      {"measurement": "inhibition (INH)", "setting": "Mus musculus [5]", "result": -4, "unit": "%"},
      {"measurement": "inhibition (INH)", "setting": "Mus musculus [6]", "result": -4, "unit": "%"},
      {"measurement": "inhibition (INH)", "setting": "Mus musculus [7]", "result": 32, "unit": "%"},
      {"measurement": "inhibition (INH)", "setting": "Mus musculus [8]", "result": 56, "unit": "%"},
      {"measurement": "inhibition (INH)", "setting": "Mus musculus [9]", "result": 45, "unit": "%"},
      {"measurement": "inhibition (INH)", "setting": "Mus musculus [10]", "result": 45, "unit": "%"}
    ]},
    {"smiles": "COC(=O)N1CCN(C(=O)Cc2ccc(Cl)c(Cl)c2)[C@@H]2[C@@H](N3CCCC3)CCC[C@@H]21.Cl", "values": [
      {"measurement": "Kp at 0.25 h", "setting": "[11]", "result": 0.5},
      {"measurement": "concentration at 1 h", "setting": "[12]", "result": 37.3, "unit": "ng/mL"},
      {"measurement": "concentration at 0.25 h", "setting": "[13]", "result": 117, "unit": "ng/mL"},
      {"measurement": "concentration at 1 h", "setting": "[14]", "result": 24.2, "unit": "ng/g"},
      {"measurement": "Kp at 1 h", "setting": "[15]", "result": 0.65},
      {"measurement": "Activity", "setting": "Rattus norvegicus [16]", "result": "Toxic"},
      {"measurement": "Activity", "setting": "Rattus norvegicus [17]", "result": "Toxic"}
    ]},
    {"smiles": "C[C@]12CCC(=O)C=C1CC[C@@H]1[C@@H]2[C@@H](O)C[C@@]2(C)[C@H]1CC[C@]2(O)C(=O)CO", "note": "[HYDROCORTISONE]", "values": [
      {"measurement": "Activity", "setting": "Mus musculus [18]", "result": 332, "unit": "um"},
      {"measurement": "Activity", "setting": "Mus musculus [19]", "result": 17.2, "unit": "mg"},
      {"measurement": "Activity", "setting": "Mus musculus [20]", "result": "Active"},
      {"measurement": "Activity", "setting": "Mus musculus [21]", "result": 66, "unit": "um"},
      {"measurement": "Activity", "setting": "Mus musculus [22]", "result": "Active"},
      {"measurement": "Activity", "setting": "Mus musculus [23]", "result": "Active"},
      {"measurement": "Activity", "setting": "Mus musculus [24]", "result": "Active"},
      {"measurement": "Activity", "setting": "Mus musculus [25]", "result": "Active"}
    ]},
    {"smiles": "COC(=O)N1CCN(C(=O)Cc2ccc(F)c(Cl)c2)[C@@H]2[C@@H](N3CC[C@H](F)C3)CCC[C@@H]21", "values": [
      {"measurement": "Ki", "setting": "[1]", "result": 0.56, "unit": "nM"},
      {"measurement": "Ki", "setting": "[2]", "result": 74, "unit": "nM"},
      {"measurement": "EC50", "setting": "[3]", "result": 0.4, "unit": "nM"},
      {"measurement": "inhibition (INH)", "setting": "Mus musculus [5]", "result": 25, "unit": "%"},
      {"measurement": "inhibition (INH)", "setting": "Mus musculus [6]", "result": 40, "unit": "%"},
      {"measurement": "inhibition (INH)", "setting": "Mus musculus [7]", "result": 66, "unit": "%"},
      {"measurement": "inhibition (INH)", "setting": "Mus musculus [8]", "result": 60, "unit": "%"},
      {"measurement": "Activity", "setting": "Mus musculus [26]", "result": "Toxic"}
    ]}
  ]
}
